Assays:
Assay in all cases: relative viability vs DMSO control (72 h) (fraction); higher = more viable cells
SYO-1 = tested on: SYO-1
How it was run: (§1)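 Relative viability is percent growth read by ATPLite and averaged over up to triplicate wells. Sarcoma cells were seeded in 384-well plates to reach 80–90% confluence and given 2.5 µl of serially diluted compound after 24 h, from source plates of 10 mM to 0.0002 mM. Incubation lasted 72 h at 37 °C, 5% CO2, with 0.1% DMSO vehicle and a 5 µM positive control, and the data were rescaled so 1 equals full and 0 equals none.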

SK-LMS-1 = tested on: SK-LMS-1
How it was run: as §1

RD = tested on: RD
How it was run: as §1

HS729 = tested on: HS729
How it was run: as §1

SK-ES-1 = tested on: SK-ES-1
How it was run: as §1

A204 = tested on: A204
How it was run: as §1

VA-ES-BJ = tested on: VA-ES-BJ
How it was run: as §1

KHOS-NP = tested on: KHOS-NP
How it was run: as §1

SW872 = tested on: SW872
How it was run: as §1

MES-SA = tested on: MES-SA
How it was run: as §1

G401 = tested on: G401
How it was run: as §1

SW684 = tested on: SW684
How it was run: as §1

CCCS(=O)(=O)N[C@H]1C[C@@H](N(C)c2ncnc3[nH]ccc23)C1 [Abrocitinib]
Conditions | relative viability
A204, 0.00017 µM | 1.07
A204, 0.00051 µM | 1.06
A204, 0.00152 µM | 1.07
A204, 0.00457 µM | 1.06
A204, 0.01372 µM | 1.07
A204, 0.04115 µM | 1.07
A204, 0.1235 µM | 1.07
A204, 0.3704 µM | 1.07
A204, 1.111 µM | 1.03
A204, 3.333 µM | 1.01
A204, 10 µM | 0.949
G401, 0.00017 µM | 1
G401, 0.00051 µM | 0.981
G401, 0.00152 µM | 0.994
G401, 0.00457 µM | 1.04
G401, 0.01372 µM | 1.01
G401, 0.04115 µM | 0.981
G401, 0.1235 µM | 0.984
G401, 0.3704 µM | 1.01
G401, 1.111 µM | 1.01
G401, 3.333 µM | 0.956
G401, 10 µM | 0.915
HS729, 0.00017 µM | 0.926
HS729, 0.00051 µM | 0.935
HS729, 0.00152 µM | 0.937
HS729, 0.00457 µM | 0.951
HS729, 0.01372 µM | 0.94
HS729, 0.04115 µM | 0.95
HS729, 0.1235 µM | 0.909
HS729, 0.3704 µM | 0.91
HS729, 1.111 µM | 0.941
HS729, 3.333 µM | 0.8836
HS729, 10 µM | 0.892
KHOS-NP, 0.00017 µM | 1.05
KHOS-NP, 0.00051 µM | 1.04
KHOS-NP, 0.00152 µM | 1.04
KHOS-NP, 0.00457 µM | 1.05
KHOS-NP, 0.01372 µM | 1.05
KHOS-NP, 0.04115 µM | 1.04
KHOS-NP, 0.1235 µM | 1.06
KHOS-NP, 0.3704 µM | 1.04
KHOS-NP, 1.111 µM | 1.05
KHOS-NP, 3.333 µM | 1.04
KHOS-NP, 10 µM | 1.039
MES-SA, 0.00017 µM | 0.929
MES-SA, 0.00051 µM | 0.904
MES-SA, 0.00152 µM | 0.9
MES-SA, 0.00457 µM | 0.9254
MES-SA, 0.01372 µM | 0.917
MES-SA, 0.04115 µM | 0.932
MES-SA, 0.1235 µM | 0.922
MES-SA, 0.3704 µM | 0.942
MES-SA, 1.111 µM | 0.912
MES-SA, 3.333 µM | 0.933
MES-SA, 10 µM | 0.893
RD, 0.00017 µM | 1.06
RD, 0.00051 µM | 1.12
RD, 0.00152 µM | 1.11
RD, 0.00457 µM | 1.09
RD, 0.01372 µM | 1.09
RD, 0.04115 µM | 1.11
RD, 0.1235 µM | 1.09
RD, 0.3704 µM | 1.08
RD, 1.111 µM | 1.15
RD, 3.333 µM | 1.1
RD, 10 µM | 1.09
SK-ES-1, 0.00017 µM | 1.03
SK-ES-1, 0.00051 µM | 1.06
SK-ES-1, 0.00152 µM | 1.04
SK-ES-1, 0.00457 µM | 1.03
SK-ES-1, 0.01372 µM | 1.03
SK-ES-1, 0.04115 µM | 1.02
SK-ES-1, 0.1235 µM | 1.03
SK-ES-1, 0.3704 µM | 1.03
SK-ES-1, 1.111 µM | 1.02
SK-ES-1, 3.333 µM | 1.03
SK-ES-1, 10 µM | 1
SK-LMS-1, 0.00017 µM | 1
SK-LMS-1, 0.00051 µM | 1.03
SK-LMS-1, 0.00152 µM | 1.01
SK-LMS-1, 0.00457 µM | 1.02
SK-LMS-1, 0.01372 µM | 1.04
SK-LMS-1, 0.04115 µM | 1.04
SK-LMS-1, 0.1235 µM | 0.992
SK-LMS-1, 0.3704 µM | 1.01
SK-LMS-1, 1.111 µM | 1.01
SK-LMS-1, 3.333 µM | 1.02
SK-LMS-1, 10 µM | 1.02
SW684, 0.00017 µM | 1.11
SW684, 0.00051 µM | 1.12
SW684, 0.00152 µM | 1.12
SW684, 0.00457 µM | 1.15
SW684, 0.01372 µM | 1.12
SW684, 0.04115 µM | 1.13
SW684, 0.1235 µM | 1.14
SW684, 0.3704 µM | 1.16
SW684, 1.111 µM | 1.11
SW684, 3.333 µM | 1.09
SW684, 10 µM | 1.08
SW872, 0.00017 µM | 0.993
SW872, 0.00051 µM | 0.995
SW872, 0.00152 µM | 0.991
SW872, 0.00457 µM | 1
SW872, 0.01372 µM | 1.01
SW872, 0.04115 µM | 1.03
SW872, 0.1235 µM | 1.02
SW872, 0.3704 µM | 1.02
SW872, 1.111 µM | 1.03
SW872, 3.333 µM | 1.01
SW872, 10 µM | 1
SYO-1, 0.00017 µM | 0.984
SYO-1, 0.00051 µM | 0.951
SYO-1, 0.00152 µM | 0.956
SYO-1, 0.00457 µM | 0.972
SYO-1, 0.01372 µM | 0.952
SYO-1, 0.04115 µM | 0.957
SYO-1, 0.1235 µM | 0.974
SYO-1, 0.3704 µM | 0.959
SYO-1, 1.111 µM | 0.993
SYO-1, 3.333 µM | 0.994
SYO-1, 10 µM | 1.01
VA-ES-BJ, 0.00017 µM | 1.02
VA-ES-BJ, 0.00051 µM | 1.02
VA-ES-BJ, 0.00152 µM | 1
VA-ES-BJ, 0.00457 µM | 1.03
VA-ES-BJ, 0.01372 µM | 1.02
VA-ES-BJ, 0.04115 µM | 1.05
VA-ES-BJ, 0.1235 µM | 1.03
VA-ES-BJ, 0.3704 µM | 1.05
VA-ES-BJ, 1.111 µM | 1.06
VA-ES-BJ, 3.333 µM | 1.03
VA-ES-BJ, 10 µM | 1.01

From the supplement of paper PMC10883282
